Four molecules from US8497276B2, “Substituted indolo-piperidine compounds” (ArQule, Inc., priority 2009, dated 2013) can be followed below.

One assay concerns PACA-2. The experiment in a line: MTS Assay (cell growth inhibition), PACA-2. The class given is cell-based. Conditions: PACA-2 cells, 72 hours with test compound; concentration not given. The procedure, abridged:
(§1)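 First, seed 3000 cells per well in low-serum (1% FBS) DMEM and culture 18 h. Next, add compounds prepared at 300× in DMSO and diluted 1:40 in DMEM; incubate 72 h. Finally, add MTS/PMS for 4 h and measure absorbance at 492 nm.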

A further assay concerns NCI-H1299. The experiment in a line: MTS Assay (cell growth inhibition), NCI-H1299. The settings on record: NCI-H1299 cells, 72 hours with test compound; concentration not given. It counts as cell-based. The procedure, abridged:
as §1

The next assay deals with DLD-1. In words: MTS Assay (cell growth inhibition), DLD-1. The class given is cell-based. The settings on record: DLD-1 cells, 72 hours with test compound; concentration not given. The procedure, abridged:
as §1

The next assay has as its target T1, Tec kinase (Homo sapiens, UniProt P42680).
T1 sequence (P42680 1-631): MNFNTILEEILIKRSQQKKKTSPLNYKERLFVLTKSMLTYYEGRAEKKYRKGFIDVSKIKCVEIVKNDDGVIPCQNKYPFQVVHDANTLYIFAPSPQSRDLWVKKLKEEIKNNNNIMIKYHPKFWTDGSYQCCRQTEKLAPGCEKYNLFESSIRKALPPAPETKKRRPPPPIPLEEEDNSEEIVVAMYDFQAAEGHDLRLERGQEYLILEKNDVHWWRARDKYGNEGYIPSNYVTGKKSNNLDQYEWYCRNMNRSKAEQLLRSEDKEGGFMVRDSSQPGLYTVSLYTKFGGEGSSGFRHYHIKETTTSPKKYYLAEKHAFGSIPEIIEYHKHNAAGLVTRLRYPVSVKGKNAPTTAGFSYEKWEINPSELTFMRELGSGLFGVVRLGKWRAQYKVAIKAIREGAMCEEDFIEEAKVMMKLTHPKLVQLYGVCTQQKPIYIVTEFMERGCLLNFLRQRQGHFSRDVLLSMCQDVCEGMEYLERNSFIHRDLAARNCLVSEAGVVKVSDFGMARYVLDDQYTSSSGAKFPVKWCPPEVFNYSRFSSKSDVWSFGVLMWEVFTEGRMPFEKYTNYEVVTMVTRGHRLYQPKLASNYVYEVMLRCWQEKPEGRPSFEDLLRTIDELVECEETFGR
In words: Tec Kinase Activity Assay. The settings on record: 75 μM ATP, Pyk-2 substrate; compound concentration not given. It counts as biochemical. The procedure, abridged:
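TEC enzyme was preincubated 30 min with compound in buffer containing 75 μM ATP, 10 mM MgCl2, 2 mM DTT and 50 mM Tris-HCl. Pyk-2 substrate was then added for 2 h at room temperature. Phosphorylated product was captured on streptavidin plates and detected by anti-phosphotyrosine ELISA with an alkaline phosphatase/Attophos fluorescent read-out.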

For a further assay, the system named is Kato III. The experiment in a line: MTS Assay (cell growth inhibition), Kato III. The class given is cell-based. Conditions: Kato III cells, 72 hours with test compound; concentration not given. The procedure, abridged: as §1
Another assay deals with PC-3. In words: MTS Assay (cell growth inhibition), PC-3. The class given is cell-based. The settings on record: PC-3 cells, 72 hours with test compound; concentration not given. The procedure, abridged:
as §1

The next assay relates to MDA-MB 231. The experiment in a line: MTS Assay (cell growth inhibition), MDA-MB 231. The class given is cell-based. The settings on record: MDA-MB 231 cells, 72 hours with test compound; concentration not given. The procedure, abridged: as §1

Regarding `Clc1ccccc1C1c2[nH]c3ccccc3c2CCN1c1ncnc2[nH]cnc12` (stereo not drawn) [Compound 13, 1-(2-chlorophenyl)-2-(9H-purin-6-yl)-2,3,4,9-tetrahydro-1H-beta-carboline], the “MTS cell kill data (% inhibition) PACA-2” value in the assay with PACA-2 was “C (C = <50% inhibition)”. The “MTS cell kill data (% inhibition) NCI-H1299” value in the assay on NCI-H1299 is reported as “B (B = 50-79% inhibition)”. In addition, the “MTS cell kill data (% inhibition) DLD-1” value in the assay on DLD-1 was “C (C = <50% inhibition)”. The “Biochemical IC50 (% inhibition) Tec” value on Tec kinase is reported as “B (B = 50-79% inhibition)”. Further, the “MTS cell kill data (% inhibition) Kato III” value in the assay with Kato III is on record as “C (C = <50% inhibition)”. Further, the “MTS cell kill data (% inhibition) PC-3” value in the assay with PC-3 is “C (C = <50% inhibition)”. For the same molecule, the “MTS cell kill data (% inhibition) MDA-MB 231” value with MDA-MB 231 is given as “C (C = <50% inhibition)”.
With `c1ccc(C2c3[nH]c4ccccc4c3CCN2c2ncnc3[nH]ccc23)cc1` (stereo not drawn) [Compound 24, 1-phenyl-2-(7H-pyrrolo[2,3-d]pyrimidin-4-yl)-2,3,4,9-tetrahydro-1H-beta-carboline], the “MTS cell kill data (% inhibition) PACA-2” value with PACA-2 is listed as “B (B = 50-79% inhibition)”. In the assay on NCI-H1299, the “MTS cell kill data (% inhibition) NCI-H1299” value is given as “B (B = 50-79% inhibition)”. In addition, the “MTS cell kill data (% inhibition) DLD-1” value in the assay on DLD-1 is recorded as “B (B = 50-79% inhibition)”. Moreover, at Tec kinase, the “Biochemical IC50 (% inhibition) Tec” value is “B (B = 50-79% inhibition)”. Besides, the “MTS cell kill data (% inhibition) Kato III” value in the assay on Kato III is “B (B = 50-79% inhibition)”. The “MTS cell kill data (% inhibition) PC-3” value in the assay with PC-3 is “C (C = <50% inhibition)”. For the same molecule, the “MTS cell kill data (% inhibition) MDA-MB 231” value in the assay with MDA-MB 231 is recorded as “C (C = <50% inhibition)”.
For the molecule `Fc1c(Cl)cccc1C1c2[nH]c3ccccc3c2CCN1c1ncnc2[nH]ccc12` (stereo not drawn) [Compound 2, 1-(3-chloro-2-fluorophenyl)-2-(7H-pyrrolo[2,3-d]pyrimidin-4-yl)-2,3,4,9-tetrahydro-1H-beta-carboline], in the assay on PACA-2, the “MTS cell kill data (% inhibition) PACA-2” value is on record as “A (A = 80-100% inhibition)”. In addition, in the assay with NCI-H1299, the “MTS cell kill data (% inhibition) NCI-H1299” value is listed as “A (A = 80-100% inhibition)”. In addition, the “MTS cell kill data (% inhibition) DLD-1” value with DLD-1 is “A (A = 80-100% inhibition)”. Moreover, the “Biochemical IC50 (% inhibition) Tec” value on Tec kinase is given as “C (C = <50% inhibition)”. Moreover, the “MTS cell kill data (% inhibition) Kato III” value in the assay on Kato III is reported as “A (A = 80-100% inhibition)”. Also, in the assay with PC-3, the “MTS cell kill data (% inhibition) PC-3” value was “A (A = 80-100% inhibition)”. Further, the “MTS cell kill data (% inhibition) MDA-MB 231” value in the assay on MDA-MB 231 was “A (A = 80-100% inhibition)”.
Take `Fc1ccc(C2c3[nH]c4ccccc4c3CCN2c2ncnc3[nH]ncc23)cc1` (stereo not drawn) [Compound 6, 1-(4-fluorophenyl)-2-(1H-pyrazolo[3,4-d]pyrimidin-4-yl)-2,3,4,9-tetrahydro-1H-beta-carboline]: the “MTS cell kill data (% inhibition) PACA-2” value in the assay with PACA-2 was “B (B = 50-79% inhibition)”. Moreover, the “MTS cell kill data (% inhibition) NCI-H1299” value in the assay with NCI-H1299 is on record as “B (B = 50-79% inhibition)”. The “MTS cell kill data (% inhibition) DLD-1” value in the assay on DLD-1 was “B (B = 50-79% inhibition)”. Also, the “Biochemical IC50 (% inhibition) Tec” value at Tec kinase is “B (B = 50-79% inhibition)”. In the assay on Kato III, the “MTS cell kill data (% inhibition) Kato III” value is reported as “A (A = 80-100% inhibition)”. Further, the “MTS cell kill data (% inhibition) PC-3” value in the assay on PC-3 is recorded as “C (C = <50% inhibition)”. Also, the “MTS cell kill data (% inhibition) MDA-MB 231” value with MDA-MB 231 is “A (A = 80-100% inhibition)”.
